IC50 data for 23 compounds are collected here from BindingDB's records for doi:10.1016/j.ejmech.2019.05.053 (East China University of Science and Technology, 2019).

A short description of the series: Reversal of P-gp-mediated multidrug resistance in human MCF7/Dox cells assessed as potentiation of doxorubicin-induced cytotoxicity by measuring doxorubicin IC50 at 12.5 uM after 48 hrs by MTT assay (Rvb = 51.19 +/- 0.95 microM). (Tetrazolium assays rely on reduction of a dye to a coloured formazan, in cell work by metabolically active cells.)

Broadly, the pIC50 is the IC50 on a negative log10 scale, so that one unit is a factor of ten.

pIC50: −log10 of the molar value.

For the compound `COc1ccc(/C=C/C(=O)c2c(OC)cc(OC)c(CC=C(C)C)c2O)cc1`, the pIC50 was 4.68. Under `COc1cc(OC)c(C(=O)/C=C/c2cccc(Cl)c2)c(O)c1CC=C(C)C` stands 5.03; under `COc1ccc(C(=O)/C=C/c2cccc(N3CCNCC3)c2)c(OC)c1`, 5.31; under `COc1cc(OC)c(C(=O)/C=C/c2cccc(N3CCN(C(=O)OC(C)(C)C)CC3)c2)c(O)c1CC=C(C)C`, 4.70.

Turning to `COc1cc(O)c(C(=O)/C=C/c2cccc(N3CCNCC3)c2)c(OC)c1`, the negative logarithm of the IC50 (pIC50) was 5.58. For `COc1cc(OC)c(C(=O)/C=C/c2cccc(C(F)(F)F)c2)c(O)c1CC=C(C)C` the value was 5.20; for `COc1cccc(/C=C/C(=O)c2c(OC)cc(OC)c(CC=C(C)C)c2O)c1`, 5.10; for `COc1cc(O)c(C(=O)/C=C/c2cccc(N3CCN(C(=O)c4ccc(OC)c(OC)c4)CC3)c2)c(OC)c1`, 4.37. Under `COc1cc(OC)c(C(=O)/C=C/c2cccc(N3CCOCC3)c2)c(O)c1CC=C(C)C` stands 4.50; under `COc1cc(OC)c(C(=O)/C=C/c2ccc(Cl)cc2)c(O)c1CC=C(C)C`, 4.66; under `CCCCCc1c(OC)cc(OC)c(C(=O)/C=C/c2cccc(N3CCNCC3)c2)c1O`, 4.63. Under `COc1cc(OC)c(C(=O)/C=C/c2ccc(N3CCN(C(=O)OC(C)(C)C)CC3)cc2)c(O)c1CC=C(C)C` stands 4.28. For the compound `COc1cc(OC)c(C(=O)/C=C/c2cccc(N3CCNCC3)c2)c(O)c1CC=C(C)C`, the pIC50 is 5.99. Under `COc1cc(O)c(C(=O)/C=C/c2cccc(N3CCN(C)CC3)c2)c(OC)c1` stands 4.75. Under `CCCc1c(OC)cc(OC)c(C(=O)/C=C/c2cccc(N3CCNCC3)c2)c1O` stands 5.29; under `COc1cc(O)c(C(=O)/C=C/c2ccc(N3CCN(C(=O)OC(C)(C)C)CC3)cc2)c(OC)c1`, 4.23. Under `COc1cc(OC)c(C(=O)/C=C/c2ccc(N(C)C)cc2)c(O)c1CC=C(C)C` stands 4.76. Take `COc1cc(OC)c(C(=O)/C=C/c2cccc(F)c2)c(O)c1CC=C(C)C`: the pIC50 was 4.90. For `COc1cc(O)c(C(=O)/C=C/c2cccc(N3CCOCC3)c2)c(OC)c1` the value was 4.73. Turning to `COc1c(C)c(O)c(C)c(O)c1C(=O)/C=C/c1ccccc1` [CHEBI:70658], the pIC50 is 4.61. Turning to `CCc1c(OC)cc(OC)c(C(=O)/C=C/c2cccc(N3CCNCC3)c2)c1O`, the pIC50 is 5.33.

Take `COc1cc(OC)c(C(=O)/C=C/c2ccc(OC)c(OC)c2OC)c(O)c1CC=C(C)C`: the pIC50 is 4.56.

As for `CCCCc1c(OC)cc(OC)c(C(=O)/C=C/c2cccc(N3CCNCC3)c2)c1O`, the pIC50 is 5.45.
